This experiment concerns the target T1, AURKA (Homo sapiens, UniProt O14965).
T1 construct: endogenous in cells; host or cells: Jurkat cells
T1 sequence (O14965 1-403): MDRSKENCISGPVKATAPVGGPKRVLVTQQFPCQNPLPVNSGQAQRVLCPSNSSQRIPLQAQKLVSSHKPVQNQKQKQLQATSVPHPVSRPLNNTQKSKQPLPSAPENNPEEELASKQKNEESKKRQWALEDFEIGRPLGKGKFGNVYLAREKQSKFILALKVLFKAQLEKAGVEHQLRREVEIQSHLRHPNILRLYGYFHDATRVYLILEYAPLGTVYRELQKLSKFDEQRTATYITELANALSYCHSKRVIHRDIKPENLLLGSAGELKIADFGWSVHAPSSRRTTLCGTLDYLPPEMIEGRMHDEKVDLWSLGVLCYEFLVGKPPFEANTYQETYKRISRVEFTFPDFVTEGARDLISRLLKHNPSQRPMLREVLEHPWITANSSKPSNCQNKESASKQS
Type of experiment: cell-based. Particulars: Jurkat cells, 24 h, Table 2. The source says: WB is a classical biochemical experimental method used to detect the abundance of a target protein in a sample of cells or biological tissue. It relies on specific antigen-antibody binding to detect protein signals from the sample processed by gel electrophoresis: the protein specifically binds to a primary antibody at an epitope; the primary antibody is then conjugated with a secondary antibody to amplify the signal cascade; the signal is read out by chemiluminescent or fluorescent detection. The intracellular protein content is ultimately characterized by the intensity of the optical signals. […] The DC50 value can be calculated by curve fitting of the protein WB exposure signals.
The experimental procedure is as follows: • 1. Seed Jurkat cells into a 12-well plate at 1×10^6 cells/500 µL/well. • 2. Mix the culture medium with the compound to a concentration that is twice the desired final concentration. […] Transfer the cell suspension to a centrifuge tube. Rinse the 12-well plate with PBS and then transfer the PBS from the plate to the same centrifuge tube. Centrifuge at 3000 rpm for 5 min at room temperature. Aspirate the supernatant using a vacuum pump. […] Lyse on ice for 20 min. • 4. Centrifuge the lysed sample at 13000 rpm for 20 min at 4°C. Mix the supernatant with 5× protein loading buffer. Boil at 100°C for 5 min and then cool. Store the denatured protein sample at -20°C. • 5. […] Run electrophoresis at 80 V for 20 min, and then at 120 V constant voltage for 60 min. • 6. Transfer the protein onto a nitrocellulose membrane in an ice bath at 250 mA constant current for 90 min. • 7. […] Incubate with a primary antibody overnight at 4°C. • 9. […] Incubate with a secondary antibody for 1-2 h at room temperature. • 10. […] Expose and image the membrane using a LICOR Odyssey DLx imager.

Take `Cc1c(N2CCN(CCc3cccc(Nc4ncc5c(n4)-c4ccc(Cl)cc4C(c4c(F)cccc4F)=NC5)c3)CC2)cncc1N1CCC(=O)NC1=O` [Compound A162]: the “Percentage of AURKA Degradation Induced by 100 nM Compound in Jurkat Cells” value (from here on “Percentage … by 100 nM Compound in Jurkat Cells”) was “++ (30% < Degradation ≤ 70%)” and the “Percentage of AURKA Degradation Induced by 1 µM Compound in Jurkat Cells” value (from here on “Percentage … by 1 µM Compound in Jurkat Cells”) is given as “++ (30% < Degradation ≤ 70%)”.

`Cc1c(N2CCC3(CC2)CN(Cc2cccc(Nc4ncc5c(n4)-c4ccc(Cl)cc4C(c4c(F)cccc4F)=NC5)c2)C3)cccc1N1CCC(=O)NC1=O` [Compound A163]: the “Percentage … by 100 nM Compound in Jurkat Cells” value is given as “++ (30% < Degradation ≤ 70%)” and the “Percentage … by 1 µM Compound in Jurkat Cells” value is listed as “+ (Degradation ≤ 30%)”.

Take `O=C1CCN(c2cncc(N3CCN(C4CN(c5cccc(Nc6ncc7c(n6)-c6ccc(Cl)cc6C(c6c(F)cccc6F)=NC7)c5)C4)CC3)c2C(F)F)C(=O)N1` [Compound A193]: the “Percentage … by 100 nM Compound in Jurkat Cells” value is given as “+ (Degradation ≤ 30%)” and the “Percentage … by 1 µM Compound in Jurkat Cells” value is listed as “+ (Degradation ≤ 30%)”.

Take `O=C1CCN(c2cnc(N3CC(N4CCN(c5ccc(Nc6ncc7c(n6)-c6ccc(Cl)cc6C(c6c(F)cccc6F)=NC7)cc5)C(=O)C4)C3)s2)C(=O)N1` [Compound A201]: the “Percentage … by 100 nM Compound in Jurkat Cells” value was “++ (30% < Degradation ≤ 70%)” and the “Percentage … by 1 µM Compound in Jurkat Cells” value is “++ (30% < Degradation ≤ 70%)”.

As to `O=C1CCN(c2ccc(N3CC4(C3)CN(C3CN(c5ccc(Nc6ncc7c(n6)-c6ccc(Cl)cc6C(c6c(F)cccc6F)=NC7)cc5)C3)C4)nc2)C(=O)N1` [Compound A204], the “Percentage … by 100 nM Compound in Jurkat Cells” value is “+++ (Degradation > 70%)” and the “Percentage … by 1 µM Compound in Jurkat Cells” value is listed as “++ (30% < Degradation ≤ 70%)”.

With `O=C1CCN(c2cncc(N3CCC(N4CC5(CN(c6cccc(Nc7ncc8c(n7)-c7ccc(Cl)cc7C(c7c(F)cccc7F)=NC8)c6)C5)C4)CC3)c2)C(=O)N1` [Compound A241], the “Percentage … by 100 nM Compound in Jurkat Cells” value is “+++ (Degradation > 70%)” and the “Percentage … by 1 µM Compound in Jurkat Cells” value was “++ (30% < Degradation ≤ 70%)”.

As for `O=C1CCN(c2ccc(N3CCN(CC4CN([C@H]5CC[C@H](Nc6ncc7c(n6)-c6ccc(Cl)cc6C(c6c(F)cccc6F)=NC7)CC5)C4)CC3)nc2)C(=O)N1` [Compound A246], the “Percentage … by 100 nM Compound in Jurkat Cells” value was “+ (Degradation ≤ 30%)” and the “Percentage … by 1 µM Compound in Jurkat Cells” value is given as “++ (30% < Degradation ≤ 70%)”.

Take `O=C1CCN(c2ccc(N3CCN(CC4CN([C@H]5CC[C@@H](Nc6ncc7c(n6)-c6ccc(Cl)cc6C(c6c(F)cccc6F)=NC7)CC5)C4)CC3)nc2)C(=O)N1` [Compound A247]: the “Percentage … by 100 nM Compound in Jurkat Cells” value is given as “+ (Degradation ≤ 30%)” and the “Percentage … by 1 µM Compound in Jurkat Cells” value is given as “+ (Degradation ≤ 30%)”.

For `CN(C)CCOc1ccc2c(c1)C(c1c(F)cccc1F)=NCc1cnc(Nc3ccc(N4CC(CN5CCN(c6ccc(N7CCC(=O)NC7=O)cn6)CC5)C4)cc3)nc1-2` [Compound A260], the “Percentage … by 100 nM Compound in Jurkat Cells” value was “++ (30% < Degradation ≤ 70%)” and the “Percentage … by 1 µM Compound in Jurkat Cells” value was “++ (30% < Degradation ≤ 70%)”.

Consider `CP(C)(=O)c1ccc2c(c1)C(c1c(F)cccc1F)=NCc1cnc(Nc3ccc(N4CCN(C5CCN(c6ccc(N7CCC(=O)NC7=O)cn6)CC5)CC4)cc3)nc1-2` [Compound A266], for which the “Percentage … by 100 nM Compound in Jurkat Cells” value was “++ (30% < Degradation ≤ 70%)” and the “Percentage … by 1 µM Compound in Jurkat Cells” value was “++ (30% < Degradation ≤ 70%)”.

On to `O=C1CCN(c2ccc(N3CCC(F)(CN4CCN(C56CC(Nc7ncc8c(n7)-c7ccc(Cl)cc7C(c7nccs7)=NC8)(C5)C6)C(=O)C4)CC3)nc2)C(=O)N1` [Compound A278], for which the “Percentage … by 100 nM Compound in Jurkat Cells” value is given as “++ (30% < Degradation ≤ 70%)” and the “Percentage … by 1 µM Compound in Jurkat Cells” value is “+++ (Degradation > 70%)”.

These data come from EP4818168A1, “FUSED RING COMPOUND, PHARMACEUTICAL COMPOSITION THEREOF AND USE THEREOF” (priority 2023, dated 2025).
